Among the data in patent publication US20250195518A1, “INDAZOLE COMPOUND AND PHARMACEUTICAL USE THEREOF” (Japan Tobacco Inc., priority 2022, published 2025) are IC50, muscle strength and myonecrosis values, retold here.

T1 sequence (O60760 whole entry): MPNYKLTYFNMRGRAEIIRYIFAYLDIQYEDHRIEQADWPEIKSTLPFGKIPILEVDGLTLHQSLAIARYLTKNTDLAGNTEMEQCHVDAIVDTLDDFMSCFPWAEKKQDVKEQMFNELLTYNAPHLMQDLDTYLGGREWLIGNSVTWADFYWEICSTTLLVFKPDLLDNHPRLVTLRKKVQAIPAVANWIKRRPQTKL

The first assay addresses T1, human H-PGDS (Homo sapiens (Human), UniProt O60760). Put plainly: Human H-PGDS binding inhibitory activity (AlphaLISA antagonistic assay). Conditions: His-tagged human H-PGDS 0.3 nmol/L, biotinylated H-PGDS inhibitor 45 nmol/L. Here is the method:
Experimental Example 1: Measurement of Human H-PGDS Binding Inhibitory Activity
The H-PGDS binding inhibitory activity of the test compound was measured by AlphaLISA antagonistic assay. A specific protocol is as follows.
In an AlphaPlate-384 Shallow well plate (Cat. 6008350, PerkinElmer) were added and mixed 240 nL/well of DMSO solution as a compound solution or a solvent control, 3 µL/well (final concentration: 45 nmol/L) of biotinylated H-PGDS inhibitor (see below for the production method) diluted with […] DMSO-containing Assay Buffer (50 mM HEPES-NaOH (pH 7.5), 2 mM GSH, 150 mM NaCl, 2 mM MgCl2, 0.005% Surfactant P20), and 2 μL/well (final concentration: 0.3 nmol/L) of His-tagged human H-PGDS (Cat. ATGP1557, ATgen) diluted with Assay Buffer. As a blank, 2 μL/well of Assay Buffer was added instead of His-tagged human H-PGDS. This plate was allowed to stand at room temperature for 60 min, and Nickel Chelate AlphaLISA Acceptor Beads (Cat. AL108C, Perkin Elmer) at 5 μL/well (final concentration: 20 μg/mL) were added and mixed. After allowing to stand at room temperature for 30 min under shading, AlphaScreen Streptavidin donor beads (Cat. 6760002S, Perkin Elmer) were added at 5 μL/well (final concentration: 30 μg/mL) and mixed. After allowing to stand at room temperature for 60 min under shading, AlphaLISA signals (excitation wavelength: 680 nm, measurement wavelength: 615 nm) were measured using Enspire (Perkin Elmer).
The H-PGDS binding inhibitory activity (inhibitory rate) of each test compound was calculated as follows, and the IC50 value was calculated from the inhibitory rate at two concentrations sandwiching 50%.
(Bead proximity is the source of the signal in Alpha formats.)
As for `Cc1nn(-c2ccc(C(=O)N[C@H]3CC[C@H](C(C)(C)O)CC3)cn2)c2cccc(F)c12` [Example 50], the IC50 came to 0.074 µM.

For the molecule `Cc1nn(-c2ncc(C(=O)N[C@H]3CC[C@H](OCC(C)(C)O)CC3)cn2)c2ccccc12` [Example 4, N-(trans-4-(2-hydroxy-2-methylpropoxy)cyclohexyl)-2-(3-methyl-1H-indazol-1-yl)pyrimidine-5-carboxamide], the IC50 amounted to 0.005 µM.

For `Cc1nn(-c2ccc(C(=O)N[C@H]3CC[C@H](OC4CCS(=O)(=O)CC4)CC3)cn2)c2cc(F)ccc12` [Example 80], the IC50 worked out at 0.017 µM.

As for `Cc1nn(-c2ncc(C(=O)N[C@H]3CC[C@H](C(C)(C)O)CC3)cn2)c2c(C#N)cccc12` [Example 95], the 50% inhibitory concentration (IC50) came out at 0.144 µM. Still for that read-out and setting: the figure for `Cc1nn(-c2ncc(C(=O)NC34CC(C(C)(C)O)(C3)C4)cn2)c2cc(F)ccc12` [Example 7, 2-(6-fluoro-3-methyl-1H-indazol-1-yl)-N-(3-(2-hydroxypropan-2-yl)bicyclo[1.1.1]pentan-1-yl)pyrimidine-5-carboxamide] is 0.011 µM; for `CC(C)(O)[C@H]1CC[C@H](NC(=O)c2cnc(-n3nc(C(F)F)c4ccncc43)nc2)CC1` [Example 9, 2-(3-(difluoromethyl)-1H-pyrazolo[3,4-c]pyridin-1-yl)-N-(trans-4-(2-hydroxypropan-2-yl)cyclohexyl)pyrimidine-5-carboxamide] it is 0.013 µM; for `CC(C)(O)C12CC(NC(=O)c3cnc(-n4nc(C(F)F)c5ccccc54)nc3)(C1)C2` [Example 255] it is 0.007 µM.

With `Cc1nn(-c2ccc(C(=O)N[C@H]3CC[C@H](O)CC3)cn2)c2cc(F)ccc12` [Example 39], the IC50 worked out at 0.071 µM. The same measure, in the same setting: for `CC(C)(O)C(=O)N1CCC(NC(=O)c2cnc(-n3nc(C(F)F)c4ccc(F)cc43)nc2)CC1` [Example 254] the value was 0.014 µM. Still for that read-out and setting: for `Cc1nn(-c2ccc(C(=O)N[C@H]3CC[C@H](C(C)(C)O)CC3)cn2)c2ccccc12` [Example 15] the value was 0.012 µM. On the same count and under the same terms, the figure for `CC(C)(O)[C@H]1CC[C@H](NC(=O)c2ccc(-n3nc(Cl)c4ccccc43)nc2)CC1` [Example 17] is 0.027 µM; for `Cc1nn(-c2ccc(C(=O)N[C@H]3CC[C@H](O)CC3)cn2)c2c(F)cccc12` [Example 41] it is 0.374 µM.

With `Cc1nn(-c2ncc(C(=O)N[C@H]3CC[C@H](O)CC3)cn2)c2ccccc12` [Example 18], the IC50 was determined as 0.045 µM.

As to `Cc1nn(-c2ncc(C(=O)N[C@H]3CC[C@H](O)CC3)cn2)c2cccc(F)c12` [Example 42], the IC50 is 0.2 µM.

For the molecule `Cc1nn(-c2ccc(C(=O)N[C@H]3CC[C@H](C(C)(C)O)CC3)cn2)c2cc(F)ccc12` [Example 40], the IC50 stood at 0.007 µM.

Regarding `CC(C)(O)[C@H]1CC[C@H](NC(=O)c2cnc(-n3nc(Cl)c4ccccc43)nc2)CC1` [Example 24], the half-inhibitory concentration (IC50) was determined as 0.003 µM. On the same count and under the same terms, the figure for `Cc1nn(-c2ncc(C(=O)N[C@H]3CC[C@@](C)(O)CC3)cn2)c2cc(F)ccc12` [Example 204] is 0.014 µM. The same measure, in the same setting: for `CS(=O)(=O)CCCO[C@H]1CC[C@H](NC(=O)c2cnc(-n3nc(C(F)F)c4ccccc43)nc2)CC1` [Example 6, 2-(3-(difluoromethyl)-1H-indazol-1-yl)-N-(trans-4-(3-(methylsulfonyl)propoxy)cyclohexyl)pyrimidine-5-carboxamide] the value was 0.003 µM; for `Cc1nn(-c2ncc(C(=O)N[C@H]3CC[C@H](CC(C)(C)O)CC3)cn2)c2cnccc12` [Example 3, N-(Trans-4-(2-hydroxy-2-methylpropyl)cyclohexyl)-2-(3-methyl-1H-pyrazolo[3,4-c]pyridin-1-yl)pyrimidine-5-carboxamide], 0.021 µM. Same read-out and setting: the figure for `Cc1nn(-c2ncc(C(=O)N[C@H]3CC[C@H](C(C)(C)O)CC3)cn2)c2cc(F)ccc12` [Example 1, 2-(6-fluoro-3-methyl-1H-indazol-1-yl)-N-(trans-4-(2-hydroxypropan-2-yl)cyclohexyl)pyrimidine-5-carboxamide] is 0.003 µM; for `Cc1nc([C@H]2CC[C@H](NC(=O)c3cnc(-n4nc(C)c5ccc(F)cc54)nc3)CC2)no1` [Example 150] it is 0.014 µM; for `Cc1nn(-c2ccc(C(=O)NC3CCCCC3)cc2)c2ccccc12` [Example 11] it is 0.171 µM. In turn, `CC(C)(O)[C@H]1CC[C@H](NC(=O)c2cnc(-n3nc(C(F)(F)F)c4ccccc43)nc2)CC1` [Example 46] registered an IC50 of 0.01 µM.

Molecule `COc1nn(-c2ncc(C(=O)N[C@H]3CC[C@H](O)CC3)cn2)c2ccccc12` [Example 27] returned a half-inhibitory concentration (IC50) of 0.225 µM. Still for that read-out and setting: the figure for `Cc1nn(-c2ncc(C(=O)N[C@H]3CC[C@H](O)CC3)cc2F)c2ccccc12` [Example 54] is 0.041 µM.

A further assay concerns the target T1, human H-PGDS. The experiment in a line: Human H-PGDS inhibitory activity (enzyme reaction with PGH2, PGD2 ELISA). Format: biochemical. Conditions: human recombinant H-PGDS 1.6 μg/mL, PGH2 50 μmol/L. How it is done:
Using the human H-PGDS expression plasmid DNA (pET28b/hH-PGDS) as a template, PCR (Polymerase Chain Reaction) was performed to amplify a DNA fragment containing human H-PGDS with a NotI recognition cleavage sequence immediately before the translation initiation codon and a BamHI recognition cleavage sequence immediately below the translation end codon. The purified DNA fragment was fused to pET15b (manufactured by Merck KGaA, model number 69661) digested with NotI and BamHI, by using In-Fusion HD Cloning Kit (manufactured by Takara Bio Inc., model number 639649). […] The base sequence of human H-PGDS cloned into the vector was determined by the Dye Terminator method using BigDye Terminator v3.1 Cycle Sequencing Kit (manufactured by Applied Biosystems, model number 4337456). The determined sequence was identical to the sequence of the protein translation region of human H-PGDS (Accession number su NM_014485.2) registered in the NCBI Reference Database. […]
The protein concentration of the human H-PGDS purified fraction was measured with Pierce 660 nm Protein Assay Reagent (manufactured by Thermo Fisher Scientific Inc., model number 22660). […] Human H-PGDS was detected by Western blotting using a rabbit anti-H-PGDS polyclonal antibody (manufactured by LifeSpan BioSciences, Inc, model number LS-B6886). […]
On the technique in general: ELISA stands for enzyme-linked immunosorbent assay.
For `C[C@@H](CC(=O)O)C12CCC(NC(=O)N3CCC(c4ncc(F)c5[nH]cc(F)c45)CC3)(CC1)CC2` (single isomer, unassigned) [enantiomer A], the IC50 was 0.005 µM. The same measure, in the same setting: the figure for `C[C@H](CC(=O)O)C12CCC(NC(=O)N3CCC(c4ncc(F)c5[nH]cc(F)c45)CC3)(CC1)CC2` (single isomer, unassigned) [enantiomer B] is 0.006 µM.

Another assay relates to mdx mice.
Assay: not given
Conditions: Non-patent Document 7; cited from earlier work.
For the molecule `c1ccc(C(OC2CCN(CCCc3nn[nH]n3)CC2)c2ccccc2)cc1` [HQL-79], the muscle strength result is listed as “increases muscle strength” and the myonecrosis result is recorded as “suppresses myonecrosis”.

In general, IC50 refers to the concentration that inhibits the measured activity by half.
